Data published in ChEMBL document CHEMBL3272020, “Synthesis, antimalarial activity, and phototoxicity of some benzo(h)quinoline-4-methanols” (J Med Chem, 1976).
Activity calls are given as the source filed them. No cut-off for these calls is given here.

The compounds below were run on Mus musculus (assay: Phototoxicity in ip dosed mouse). Conditions: in vivo.
Type: organism-based
In the case of `C=C[C@H]1CN2CC[C@H]1C[C@H]2[C@H](O)c1ccnc2ccc(OC)cc12` [QUININE], the MED is reported as “Not Active”.
Work on `CCCCN(CCCC)CC(O)c1cc(-c2cc(OC)c(OC)c(OC)c2)nc2c1cc(Cl)c1ccccc12.Cl` (stereo not given) yielded an MED of 80 mg/kg.
Work on `C=C[C@H]1CN2CC[C@H]1C[C@H]2[C@H](O)c1cc(-c2ccccc2)nc2ccc(OC)cc12` yielded an MED of 10 mg/kg.
With `CCCCN(CCCC)CC(O)c1cc(C(C)(C)C)nc2c1cc(C)c1ccccc12.O=C(O)C(=O)O` (stereo not given) the MED was 300 mg/kg.
For `CCCCN(CCCC)CC(O)c1cc(-c2ccc(C)cc2C)nc2c1ccc1ccccc12.Cl` (stereo not given), the MED was 300 mg/kg.
For `CCCCN(CCCC)CC(O)c1c(C)cnc2c1ccc1cccc(Cl)c12.Cl` (stereo not given), the MED was 200 mg/kg.
For `CCCCN(CCCC)CC(O)c1c(C)cnc2c1ccc1ccccc12.Cl` (stereo not given), the MED was “Not Active”.
`CCCCN(CCCC)CC(O)c1cc(C(C)(C)C)nc2c1ccc1ccccc12.O=C(O)C(=O)O` (stereo not given) showed an MED of 100 mg/kg.
Compound `CCCCN(CCCC)CC(O)c1c(C)cnc2c1cc(Cl)c1ccccc12.Cl` (stereo not given) has an MED of 400 mg/kg.
`CCCCN(CCCC)CC(O)c1cc(C(C)(C)C)nc2c1cc(Cl)c1ccccc12.O=C(O)C(=O)O` (stereo not given) gave an MED of 100 mg/kg.

Each compound was assayed on Mus musculus (assay: Toxicity in mouse infected with Plasmodium berghei assessed as animal death at 320 mg/kg, sc). Conditions: in vivo.
Type: organism-based
Design: dose 320 mg/kg, route subcutaneous
In the case of `CCCCN(CCCC)CC(O)c1cc(-c2cc(OC)c(OC)c(OC)c2)nc2c1cc(Cl)c1ccccc12.Cl` (stereo not given), the Activity is reported as “Non-toxic”.

Each compound was assayed on Plasmodium berghei (assay: Antimalarial activity against Plasmodium berghei infected in mouse assessed as disease cure by measuring host survival for 60 days at 160 mg/kg, sc). Conditions: not given.
Type: functional, organism-based
Design: dose 160 mg/kg
For `CCCCN(CCCC)CC(O)c1cc(-c2cc(OC)c(OC)c(OC)c2)nc2c1cc(Cl)c1ccccc12.Cl` (stereo not given), the Activity was “Active”.

Each compound was assayed on Plasmodium berghei (assay: Antimalarial activity against Plasmodium berghei infected in mouse assessed as disease cure by measuring host survival for 60 days at 640 mg/kg, sc). Conditions: not given.
Type: functional, organism-based
Design: dose 640 mg/kg
`C=C[C@H]1CN2CC[C@H]1C[C@H]2[C@H](O)c1cc(-c2ccccc2)nc2ccc(OC)cc12` was tested, and the Activity was “Active”.
`CCCCN(CCCC)CC(O)c1c(C)cnc2c1cc(Cl)c1ccccc12.Cl` (stereo not given) was tested, and the Activity was “Active”.
With `CCCCN(CCCC)CC(O)c1cc(-c2ccc(C)cc2C)nc2c1cc(Cl)c1ccccc12.Cl` (stereo not given) the Activity was “Active”.
`CCCCN(CCCC)CC(O)c1cc(C(C)(C)C)nc2c1cc(Cl)c1ccccc12.O=C(O)C(=O)O` (stereo not given) was tested, and the Activity was “Active”.

What follows are compounds tested on Plasmodium berghei (assay: Antimalarial activity against Plasmodium berghei infected in mouse assessed as disease cure by measuring host survival for 60 days at 320 mg/kg, sc). Conditions: not given.
Type: functional, organism-based
Design: dose 320 mg/kg
In the case of `CCCCN(CCCC)CC(O)c1cc(-c2cc(OC)c(OC)c(OC)c2)nc2c1cc(Cl)c1ccccc12.Cl` (stereo not given), the Activity is reported as “Active”.
`CCCCN(CCCC)CC(O)c1cc(-c2ccc(C)cc2C)nc2c1cc(Cl)c1ccccc12.Cl` (stereo not given) was tested, and the Activity was “Active”.
`CCCCN(CCCC)CC(O)c1cc(C(C)(C)C)nc2c1cc(Cl)c1ccccc12.O=C(O)C(=O)O` (stereo not given) was tested, and the Activity was “Active”.

These compounds were tested on Mus musculus (assay: Toxicity in mouse infected with Plasmodium berghei assessed as animal death at 640 mg/kg, sc). Conditions: in vivo.
Type: organism-based
Design: dose 640 mg/kg, route subcutaneous
In the case of `C=C[C@H]1CN2CC[C@H]1C[C@H]2[C@H](O)c1ccnc2ccc(OC)cc12` [QUININE], the Activity is reported as “Non-toxic”.
For `C=C[C@H]1CN2CC[C@H]1C[C@H]2[C@H](O)c1cc(-c2ccccc2)nc2ccc(OC)cc12`, the Activity was “Non-toxic”.
With `CCCCN(CCCC)CC(O)c1cc(C(C)(C)C)nc2c1cc(C)c1ccccc12.O=C(O)C(=O)O` (stereo not given) the Activity was “Non-toxic”.
With `CCCCN(CCCC)CC(O)c1cc(-c2ccc(C)cc2C)nc2c1ccc1ccccc12.Cl` (stereo not given) the Activity was “Non-toxic”.
With `CCCCN(CCCC)CC(O)c1c(C)cnc2c1ccc1cccc(Cl)c12.Cl` (stereo not given) the Activity was “Non-toxic”.
For `CCCCN(CCCC)CC(O)c1c(C)cnc2c1ccc1ccccc12.Cl` (stereo not given), the Activity was “Non-toxic”.
In the case of `CCCCN(CCCC)CC(O)c1cc(C(C)(C)C)nc2c1ccc1ccccc12.O=C(O)C(=O)O` (stereo not given), the Activity is reported as “Toxic”.
`CCCCN(CCCC)CC(O)c1c(C)cnc2c1cc(Cl)c1ccccc12.Cl` (stereo not given) was tested, and the Activity was “Non-toxic”.
`CCCCN(CCCC)CC(O)c1cc(-c2ccc(C)cc2C)nc2c1cc(Cl)c1ccccc12.Cl` (stereo not given) was tested, and the Activity was “Non-toxic”.
For `CCCCN(CCCC)CC(O)c1cc(C(C)(C)C)nc2c1cc(Cl)c1ccccc12.O=C(O)C(=O)O` (stereo not given), the Activity was “Non-toxic”.

Each compound was assayed on Plasmodium berghei (assay: Antimalarial activity against Plasmodium berghei infected in mouse assessed as change in mean survival time at 160 mg/kg, sc). Conditions: route subcutaneous.
Type: functional
`C=C[C@H]1CN2CC[C@H]1C[C@H]2[C@H](O)c1ccnc2ccc(OC)cc12` [QUININE] showed an MST of 0.6 days.
`C=C[C@H]1CN2CC[C@H]1C[C@H]2[C@H](O)c1cc(-c2ccccc2)nc2ccc(OC)cc12` gave an MST of 5.8 days.
Compound `CCCCN(CCCC)CC(O)c1cc(C(C)(C)C)nc2c1cc(C)c1ccccc12.O=C(O)C(=O)O` (stereo not given) has an MST of 2.7 days.
With `CCCCN(CCCC)CC(O)c1cc(-c2ccc(C)cc2C)nc2c1ccc1ccccc12.Cl` (stereo not given) the MST was 4.2 days.
In the case of `CCCCN(CCCC)CC(O)c1c(C)cnc2c1ccc1cccc(Cl)c12.Cl` (stereo not given), the MST is reported as 1.2 days.
`CCCCN(CCCC)CC(O)c1c(C)cnc2c1ccc1ccccc12.Cl` (stereo not given) was tested, and the MST was 0.9 days.
Compound `CCCCN(CCCC)CC(O)c1c(C)cnc2c1cc(Cl)c1ccccc12.Cl` (stereo not given) has an MST of 6.9 days.
Compound `CCCCN(CCCC)CC(O)c1cc(-c2ccc(C)cc2C)nc2c1cc(Cl)c1ccccc12.Cl` (stereo not given) has an MST of 9 days.
For `CCCCN(CCCC)CC(O)c1cc(C(C)(C)C)nc2c1cc(Cl)c1ccccc12.O=C(O)C(=O)O` (stereo not given), the MST was 2.2 days.

Each compound was assayed on Plasmodium berghei (assay: Antimalarial activity against Plasmodium berghei infected in mouse assessed as change in mean survival time at 640 mg/kg, sc). Conditions: route subcutaneous.
Type: functional
`C=C[C@H]1CN2CC[C@H]1C[C@H]2[C@H](O)c1ccnc2ccc(OC)cc12` [QUININE] gave an MST of 4.8 days.
In the case of `CCCCN(CCCC)CC(O)c1cc(C(C)(C)C)nc2c1cc(C)c1ccccc12.O=C(O)C(=O)O` (stereo not given), the MST is reported as 5.9 days.
In the case of `CCCCN(CCCC)CC(O)c1cc(-c2ccc(C)cc2C)nc2c1ccc1ccccc12.Cl` (stereo not given), the MST is reported as 5.6 days.
With `CCCCN(CCCC)CC(O)c1c(C)cnc2c1ccc1cccc(Cl)c12.Cl` (stereo not given) the MST was 8.2 days.
`CCCCN(CCCC)CC(O)c1c(C)cnc2c1ccc1ccccc12.Cl` (stereo not given) was tested, and the MST was 5.3 days.
In the case of `CCCCN(CCCC)CC(O)c1cc(C(C)(C)C)nc2c1ccc1ccccc12.O=C(O)C(=O)O` (stereo not given), the MST is reported as 10.2 days.

Each compound was assayed on Plasmodium berghei (assay: Antimalarial activity against Plasmodium berghei infected in mouse assessed as change in mean survival time at 320 mg/kg, sc). Conditions: route subcutaneous.
Type: functional
In the case of `CCCCN(CCCC)CC(O)c1cc(C(C)(C)C)nc2c1cc(C)c1ccccc12.O=C(O)C(=O)O` (stereo not given), the MST is reported as 3.5 days.
For `CCCCN(CCCC)CC(O)c1cc(-c2ccc(C)cc2C)nc2c1ccc1ccccc12.Cl` (stereo not given), the MST was 4.6 days.
`CCCCN(CCCC)CC(O)c1c(C)cnc2c1ccc1cccc(Cl)c12.Cl` (stereo not given) was tested, and the MST was 6.2 days.
`CCCCN(CCCC)CC(O)c1c(C)cnc2c1ccc1ccccc12.Cl` (stereo not given) was tested, and the MST was 2.9 days.
Work on `CCCCN(CCCC)CC(O)c1cc(C(C)(C)C)nc2c1ccc1ccccc12.O=C(O)C(=O)O` (stereo not given) yielded an MST of 1.2 days.
Compound `CCCCN(CCCC)CC(O)c1c(C)cnc2c1cc(Cl)c1ccccc12.Cl` (stereo not given) has an MST of 12.9 days.
